Experimental data: patent US20070027150A1 (priority 2005, published 2007)

What follows are compounds tested against His-tagged N-terminal ATP binding domain (amino acid residues 9-236) of HSP90α (Homo sapiens, UniProt P07900) (assay: HSP90 inhibitor binding potency: TRF competition binding assay). Conditions: Table I; read-out: Hsp90 IC50 Range.
How it was run: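 Competition against biotinylated radicicol for binding to the His-tagged 9-236 ATP domain of HSP90α: 2 h, room temperature, HEPES/MgCl2/KCl/BSA buffer. Streptavidin capture, then europium-labeled anti-His antibody and enhancement solution; europium counts give IC50.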

| Compound | IC50 |
| --- | --- |
| COc1cccc(-c2cc(F)ccc2C2CC(=O)c3c(C)nc(N)nc3C2)n1 (stereo not drawn) [Compound 130, 2-amino-7-[4-fluoro-2-(6-methoxy-pyridin-2-yl)-phenyl]-4-methyl-7,8-dihydro-6H-quinazolin-5-one] | < 1000 nM |
| Cc1nc(N)nc2c1C(=O)CC(C(C)C)C2 (stereo not drawn) [Compound 1, 2-amino-7-isopropyl-4-methyl-7,8-dihydroquinazolin-5(6H)-one] | > 10000 nM |
| Cc1nc(N)nc2c1C(=O)CC(c1ccc(F)cc1Br)C2 (stereo not drawn) [Compound 16, 2-amino-7-(2-bromo-4-fluoro-phenyl)-4-methyl-7,8-dihydro-6H-quinazolin-5-one] | < 1000 nM |
| COc1cccc(Oc2ccccc2)c1C1CC(=O)c2c(C)nc(N)nc2C1 (stereo not drawn) [Compound 22, 2-amino-7-(2-methoxy-6-phenoxyphenyl)-4-methyl-7,8-dihydroquinazolin-5(6H)-one] | 1000 to 10000 nM |

Further lines, results first:

| IC50 | Compound |
| --- | --- |
| < 1000 nM | Cc1nc(N)nc2c1C(=O)CC(c1ccccc1OC1CCCC1)C2 (stereo not drawn) [Compound 150, 2-amino-7-(2-cyclopentyloxy-phenyl)-4-methyl-7,8-dihydro-6H-quinazolin-5-one] |
| < 1000 nM | COC(=O)c1ccccc1C1CC(=O)c2c(C)nc(N)nc2C1 (stereo not drawn) [Compound 165, methyl 2-(2-amino-4-methyl-5-oxo-5,6,7,8-tetrahydroquinazolin-7-yl)benzoate] |
| 1000 to 10000 nM | Cc1nc(N)nc2c1C(=O)CC(c1ccccc1-c1ccnc(Cl)c1)C2 (stereo not drawn) [Compound 82, 2-amino-7-[2-(2-chloropyridin-4-yl)phenyl]-4-methyl-7,8-dihydroquinazolin-5(6H)-one] |
| < 1000 nM | Cc1ccccc1Oc1ccccc1C1CC(=O)c2c(C)nc(N)nc2C1 (stereo not drawn) [Compound 134, 2-amino-4-methyl-7-[2-(2-methylphenoxy)phenyl]-7,8-dihydroquinazolin-5(6H)-one] |
| > 10000 nM | Cc1cccc(-c2ccccc2C2CC(=O)c3c(C)nc(N)nc3C2)n1 (stereo not drawn) [Compound 119, 2-amino-4-methyl-7-[2-(6-methylpyridin-2-yl)phenyl]-7,8-dihydroquinazolin-5(6H)-one] |
| 1000 to 10000 nM | Cc1nc(N)nc2c1C(=O)CC(c1ccccc1-c1cncc3ccccc13)C2 (stereo not drawn) [Compound 100, 2-amino-7-(2-isoquinolin-4-ylphenyl)-4-methyl-7,8-dihydroquinazolin-5(6H)-one] |
| < 1000 nM | Cc1nc(N)nc2c1C(=O)CC(c1ccccc1-c1ccccn1)C2 (stereo not drawn) [Compound 25, 2-amino-4-methyl-7-(2-pyridin-2-ylphenyl)-7,8-dihydroquinazolin-5(6H)-one] |
| 1000 to 10000 nM | Cc1nc(N)nc2c1C(=O)CC(c1ccccc1Oc1cc[nH]c(=O)c1)C2 (stereo not drawn) [Compound 167, 2-amino-4-methyl-7-[2-(2-oxo-1,2-dihydro-pyridin-4-yloxy)-phenyl]-7,8-dihydro-6H-quinazolin-5-one] |
| > 10000 nM | Cc1ccc(Oc2ccccc2C2CC(=O)c3c(C)nc(N)nc3C2)cc1 (stereo not drawn) [Compound 136, 2-amino-4-methyl-7-[2-(4-methylphenoxy)phenyl]-7,8-dihydroquinazolin-5(6H)-one] |
| < 1000 nM | Cc1nc(N)nc2c1C(=O)CC(c1ccccc1-c1ncccn1)C2 (stereo not drawn) [Compound 32, 2-amino-4-methyl-7-(2-pyrimidin-2-ylphenyl)-7,8-dihydroquinazolin-5(6H)-one] |
| < 1000 nM | Cc1nc(N)nc2c1C(=O)CC(c1ccccc1-c1ccccc1Cl)C2 (stereo not drawn) [Compound 79, 2-amino-7-(2′-chloro-1,1′-biphenyl-2-yl)-4-methyl-7,8-dihydroquinazolin-5(6H)-one] |

Same assay, conditions: Table II; read-out: Hsp90 IC50 Range

| Compound | IC50 |
| --- | --- |
| Cc1nc(N)nc2c1C(=O)CC(c1ncccc1OC1CCCC1)C2 (stereo not drawn) [Compound 178, 2-amino-7-(3-cyclopentyloxy-pyridin-2-yl)-4-methyl-7,8-dihydro-6H-quinazolin-5-one] | < 1000 nM |
| COc1ccc(C(F)(F)F)cc1-n1ccnc1C1CC(=O)c2c(C)nc(N)nc2C1 (stereo not drawn) [Compound 199, 2-amino-7-[1-(2-methoxy-5-trifluoromethyl-phenyl)-1H-imidazol-2-yl]-4-methyl-7,8-dihydro-6H-quinazolin-5-one] | 1000 to 10000 nM |
| CNc1cncc(-c2cc(F)ccc2C2CC(=O)c3c(C)nc(N)nc3C2)n1 (stereo not drawn) [Compound 296, 2-amino-7-[4-fluoro-2-(6-methylamino-pyrazin-2-yl)-phenyl]-4-methyl-7,8-dihydro-6H-quinazolin-5-one] | < 1000 nM |
| CCc1nc(N)nc2c1C(=O)CC(c1ccc(F)cc1-c1cccc(OC)c1F)C2 (stereo not drawn) [Compound 320, 2-amino-7-(5,2′-difluoro-3′-methoxy-biphenyl-2-yl)-4-ethyl-7,8-dihydro-6H-quinazolin-5-one] | > 10000 nM |
| COc1ncncc1-c1cc(F)ccc1C1CC(=O)c2c(C)nc(N)nc2C1 (stereo not drawn) [Compound 278, 2-amino-7-[4-fluoro-2-(4-methoxy-pyrimidin-5-yl)-phenyl]-4-methyl-7,8-dihydro-6H-quinazolin-5-one] | < 1000 nM |
| Cc1nc(N)nc2c1C(=O)CC(c1nccn1-c1cccc(OC(F)(F)F)c1)C2 (stereo not drawn) [Compound 198, 2-amino-4-methyl-7-[1-(3-trifluoromethoxy-phenyl)-1H-imidazol-2-yl]-7,8-dihydro-6H-quinazolin-5-one] | > 10000 nM |
| Nc1cccc(Cc2nc(N)nc3c2C(=O)CC(c2ccccc2)C3)c1 (stereo not drawn) [Compound 309, 2-amino-4-(3-amino-benzyl)-7-phenyl-7,8-dihydro-6H-quinazolin-5-one] | > 10000 nM |
| Cc1nc(N)nc2c1C(=O)CC(c1ncc[nH]1)C2 (stereo not drawn) [Compound 234, 2-amino-7-(1H-imidazol-2-yl)-4-methyl-7,8-dihydro-6H-quinazolin-5-one] | > 10000 nM |
| COc1nc(-c2cc(F)ccc2[C@@H]2CC(=O)c3c(C)nc(N)nc3C2)cnc1N [Compound 287, (S)-2-amino-7-[2-(5-amino-6-methoxy-pyrazin-2-yl)-4-fluoro-phenyl]-4-methyl-7,8-dihydro-6H-quinazolin-5-one] | < 1000 nM |
| COc1cccc(-n2ccnc2[C@@H]2CC(=O)c3c(C)nc(N)nc3C2)n1 [Compound 204, (S)-2-amino-7-[1-(6-methoxy-pyridin-2-yl)-1H-imidazol-2-yl]-4-methyl-7,8-dihydro-6H-quinazolin-5-one] | < 1000 nM |
| COc1nc(-c2cc(F)ccc2[C@H]2CC(=O)c3c(C)nc(N)nc3C2)ncc1C [Compound 274, (R)-2-amino-7-[4-fluoro-2-(4-methoxy-5-methyl-pyrimidin-2-yl)-phenyl]-4-methyl-7,8-dihydro-6H-quinazolin-5-one] | < 1000 nM |
| COc1ccc(Cc2nc(N)nc3c2C(=O)CC(c2ccccc2)C3)cc1 (stereo not drawn) [Compound 304, 2-amino-4-(4-methoxy-benzyl)-7-phenyl-7,8-dihydro-6H-quinazolin-5-one] | 1000 to 10000 nM |
| Nc1ncc2c(n1)CC(c1ccc(F)cc1-c1cccnc1F)CC2=O (stereo not drawn) [Compound 277, 2-amino-7-[4-fluoro-2-(2-fluoro-pyridin-3-yl)-phenyl]-7,8-dihydro-6H-quinazolin-5-one] | < 1000 nM |

Results, then the compound that gave them:

| IC50 | Compound |
| --- | --- |
| < 1000 nM | Cc1nc(N)nc2c1C(=O)CC(c1ncsc1-c1ccccc1F)C2 (stereo not drawn) [Compound 302, 2-amino-7-[5-(2-fluoro-phenyl)-thiazol-4-yl]-4-methyl-7,8-dihydro-6H-quinazolin-5-one] |
| 1000 to 10000 nM | Cc1nc(N)nc2c1C(=O)CC(c1ccc(F)cc1-c1nccnc1NCCO)C2 (stereo not drawn) [Compound 280, 2-amino-7-{4-fluoro-2-[3-(2-hydroxy-ethylamino)-pyrazin-2-yl]-phenyl}-4-methyl-7,8-dihydro-6H-quinazolin-5-one] |
